According to US4388234A, “Peptide isolation” (Hoffmann-La Roche Inc., priority 1981, dated 1983):

Test system: Candida albicans ATCC 10231
Test: protective activity against opportunistic infections in immunosuppressed (5-FU pretreated) mice
Assay type: in vivo
Conditions: for Survivors at Day 15 / Survivors at Day 8: daily for eight days with 5-FU 25 mg/kg/day i.p., female ddY mice; for Survivors at Day 15: survivors/total 15 days after infection; for Survivors at Day 8: survivors/total eight days after infection
Method: The mice were then infected with Candida albicans ATCC 10231 (1×10^5cells or more) at 24 hours after the last treatment. One control group was administered 5-FU and saline solution and a second control group received neither 5-FU nor a thymic polypeptide prior to infection with Candida albicans.

Thymosin β4: peptide containing 44 amino acid residues, isolated from calf thymus; contained in APF
protective effects against infection (compared with the polypeptides of Thymosin Fraction 5, thymosin α1 and thymosin β8, 5-FU immunosuppressed mice): of comparable similar magnitude | Survivors at Day 15 (dose 0.4 μg/kg/day): 6/10 | Survivors at Day 8 (dose 0.4 μg/kg/day): 7/10 | Survivors at Day 15 (dose 4 μg/kg/day): 5/10 | Survivors at Day 8 (dose 4 μg/kg/day): 5/10 | Survivors at Day 15 (dose 40 μg/kg/day): 1/10 | Survivors at Day 8 (dose 40 μg/kg/day): 1/10
